This test deals with AEC-I monolayers. Kind of test: Monolayer permeability, FITC-labeled streptavidin binding to biotin. Type of test: cell-based, rat. To be noted: stretched monolayers (25%, 6 hrs), 1 μM PI pretreatment 18 hours. The text has this:
To obtain monolayer rat type-II alveolar epithelial cells (AEC-II), cells were isolated from Sprague-Dawley rats (250-300 g, N=30 purchased from Charles River Laboratories, Wilmington, Mass.) described by Tschumperlin D J, Margulies SS. Equibiaxial deformation-induced injury of alveolar epithelial cells in vitro. Am J Physiol. 1998; 275(6 Pt 1):L1173-83. Epub 1998/12/09 (PubMed PMID: 9843855), with modifications. Briefly, animals were killed and the lungs were harvested. The lung tissue was digested with elastase at 37° C. and distal airways were isolated. Following, cells were placed on rat IgG coated containing no serum for 90 minutes to eliminate contaminating leukocytes and parenchymal cells. This isolation method yielded approximately 95% pure alveolar epithelial cell population. 1.3 million cells were plated on 1 cm diameter fibronectin-coated custom made silastic membranes. In permeability studies, biotin were mixed with fibronectin and membranes were pretreated with oxygen plasma coating to ensure homogenous distribution of the fibronectin. Cells were cultured with 10% fetal bovine serum (FBS)-containing Minimal Essential Medium (MEM) containing low dose antibiotics for 3 days. 32 to 40 monolayers were per rat. On the 3rd day, matured monolayers were randomized to be exposed to one of the treatments for 24 hours (N=3 monolayers/treatment): • A. RNAiMax transfection reagent treatment using serum free media (Opti-MEM, Thermo Fisher Scientific, Waltham, Mass.). This is a negative control for siRNA experiments where serum free media is used for improved transfection efficiency; • B. non-targeting siRNA treatment ([…], Dharmacon) serves a negative control for transfection; • C. […]
The dose of siRNA and PI treatment was selected based on dose-response curves above (FIG. 2A-FIG. 2E). […] All membranes were treated with FITC-labeled streptavidin (Thermo Fisher Scientific) at the end of the experiment and light emission was detected at 488 nm with fluorescent microscopy (Nikon TE300, Melville, N.Y.). […]

Consider one molecule from patent US11026945B2, “Protein kinase RNA-like endoplasmic reticulum kinase (PERK) inhibitors for prevention and/or treatment of lung injury and/or inflammation” (THE TRUSTEES OF THE UNIVERSITY OF PENNSYLVANIA, priority 2016, dated 2021).

For the molecule `Cn1cc(-c2ccc3c(c2)CCN3C(=O)Cc2cccc(C(F)(F)F)c2)c2c(N)ncnc21` [PI, 1-[5-(4-Amino-7-methyl-7H-pyrrolo[2,3-d]pyrimidin-5-yl)indolin-1-yl]-2-(3-trifluoromethylphenyl)ethanone], the monolayer permeability entry was “significantly reduced”.
